Source: the kinase profiling compilation of Christmann-Franck et al. (2016)

How the values were obtained:
Assay in all cases: KINOMEscan competition binding
PIM2 (human) = PIM2 (human) (UniProt Q9P1W9); details: compound 10.0 µM
MAP3K7 (human) = MAP3K7 (human) (UniProt O43318); details: compound 10.0 µM
PIM1 (human) = PIM1 (human) (UniProt P11309); details: compound 10.0 µM
CSNK2A2 (human) = CSNK2A2 (human) (UniProt P19784); details: compound 10.0 µM
PKN2 (human) = PKN2 (human) (UniProt Q16513); details: compound 10.0 µM
DMPK (human) = DMPK (human) (UniProt Q09013); details: compound 10.0 µM
STK17B (human) = STK17B (human) (UniProt O94768); details: compound 10.0 µM
Sequence of STK17B (human) (O94768 whole entry, looked up): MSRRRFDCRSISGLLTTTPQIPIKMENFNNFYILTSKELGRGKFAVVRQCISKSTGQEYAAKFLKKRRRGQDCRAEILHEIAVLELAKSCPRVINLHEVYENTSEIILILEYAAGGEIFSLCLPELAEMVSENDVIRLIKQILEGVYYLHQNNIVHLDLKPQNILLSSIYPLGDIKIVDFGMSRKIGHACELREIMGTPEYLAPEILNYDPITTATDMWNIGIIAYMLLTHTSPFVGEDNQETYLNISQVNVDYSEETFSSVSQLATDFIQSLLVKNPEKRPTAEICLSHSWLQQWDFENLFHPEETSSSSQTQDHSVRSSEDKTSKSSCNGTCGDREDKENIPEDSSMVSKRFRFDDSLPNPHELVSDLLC

DAPK1 (human) = DAPK1 (human) (UniProt P53355); details: compound 10.0 µM
PDGFRA (human) = PDGFRA (human) (UniProt P16234); details: compound 10.0 µM
Sequence of PDGFRA (human) (P16234 whole entry, looked up): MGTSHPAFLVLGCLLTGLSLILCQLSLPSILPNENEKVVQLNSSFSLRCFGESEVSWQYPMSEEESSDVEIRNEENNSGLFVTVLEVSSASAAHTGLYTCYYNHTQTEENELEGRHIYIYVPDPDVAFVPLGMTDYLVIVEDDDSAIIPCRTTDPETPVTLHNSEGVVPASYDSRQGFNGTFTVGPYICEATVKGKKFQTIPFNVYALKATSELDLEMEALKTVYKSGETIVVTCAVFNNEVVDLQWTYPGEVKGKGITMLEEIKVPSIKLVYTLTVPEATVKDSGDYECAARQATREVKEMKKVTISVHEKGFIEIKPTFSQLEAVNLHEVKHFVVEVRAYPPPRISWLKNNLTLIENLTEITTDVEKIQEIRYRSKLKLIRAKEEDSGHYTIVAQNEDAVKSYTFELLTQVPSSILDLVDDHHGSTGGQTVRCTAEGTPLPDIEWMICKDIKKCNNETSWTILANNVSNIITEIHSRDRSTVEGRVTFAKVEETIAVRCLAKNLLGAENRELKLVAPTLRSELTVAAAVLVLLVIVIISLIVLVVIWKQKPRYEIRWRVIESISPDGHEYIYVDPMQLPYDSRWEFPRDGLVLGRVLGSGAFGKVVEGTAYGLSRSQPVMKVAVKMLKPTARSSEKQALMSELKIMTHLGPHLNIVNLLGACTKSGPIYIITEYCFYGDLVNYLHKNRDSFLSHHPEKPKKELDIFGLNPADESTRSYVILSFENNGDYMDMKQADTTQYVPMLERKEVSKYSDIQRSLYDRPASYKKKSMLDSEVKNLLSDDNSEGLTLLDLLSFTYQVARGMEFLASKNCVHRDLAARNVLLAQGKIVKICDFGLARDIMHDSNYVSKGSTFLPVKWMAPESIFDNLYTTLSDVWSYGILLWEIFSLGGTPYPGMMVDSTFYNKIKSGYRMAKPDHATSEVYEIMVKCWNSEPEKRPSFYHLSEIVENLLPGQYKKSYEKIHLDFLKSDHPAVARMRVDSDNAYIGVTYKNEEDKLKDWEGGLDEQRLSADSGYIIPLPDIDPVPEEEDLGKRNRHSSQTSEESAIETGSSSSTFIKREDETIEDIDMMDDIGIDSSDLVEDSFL

PIM3 (human) = PIM3 (human) (UniProt Q86V86); details: compound 10.0 µM
[1] = tested on: EIF2AK4 KD2 (human), Q9P2K8 [S808G]; details: compound 10.0 µM
CLK2 (human) = CLK2 (human) (UniProt P49760); details: compound 10.0 µM
Sequence of CLK2 (human) (P49760 whole entry, looked up): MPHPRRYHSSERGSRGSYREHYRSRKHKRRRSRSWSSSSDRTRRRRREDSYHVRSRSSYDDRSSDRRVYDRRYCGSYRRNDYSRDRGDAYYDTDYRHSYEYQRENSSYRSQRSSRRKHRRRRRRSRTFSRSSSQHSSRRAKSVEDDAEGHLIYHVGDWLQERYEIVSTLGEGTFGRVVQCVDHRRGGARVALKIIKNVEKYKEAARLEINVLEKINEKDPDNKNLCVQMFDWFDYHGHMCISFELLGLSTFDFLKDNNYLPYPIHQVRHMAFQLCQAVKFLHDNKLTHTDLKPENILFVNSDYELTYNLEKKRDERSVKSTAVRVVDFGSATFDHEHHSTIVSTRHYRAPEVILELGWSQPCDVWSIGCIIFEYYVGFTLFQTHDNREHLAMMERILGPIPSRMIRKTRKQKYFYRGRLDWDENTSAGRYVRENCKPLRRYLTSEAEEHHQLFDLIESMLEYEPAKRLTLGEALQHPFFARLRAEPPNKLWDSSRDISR

SRPK3 (human) = SRPK3 (human) (UniProt Q9UPE1); details: compound 10.0 µM
MAP2K3 (human) = MAP2K3 (human) (UniProt P46734); details: compound 10.0 µM
CIT (human) = CIT (human) (UniProt O14578); details: compound 10.0 µM
Sequence of CIT (human) (O14578 whole entry, looked up): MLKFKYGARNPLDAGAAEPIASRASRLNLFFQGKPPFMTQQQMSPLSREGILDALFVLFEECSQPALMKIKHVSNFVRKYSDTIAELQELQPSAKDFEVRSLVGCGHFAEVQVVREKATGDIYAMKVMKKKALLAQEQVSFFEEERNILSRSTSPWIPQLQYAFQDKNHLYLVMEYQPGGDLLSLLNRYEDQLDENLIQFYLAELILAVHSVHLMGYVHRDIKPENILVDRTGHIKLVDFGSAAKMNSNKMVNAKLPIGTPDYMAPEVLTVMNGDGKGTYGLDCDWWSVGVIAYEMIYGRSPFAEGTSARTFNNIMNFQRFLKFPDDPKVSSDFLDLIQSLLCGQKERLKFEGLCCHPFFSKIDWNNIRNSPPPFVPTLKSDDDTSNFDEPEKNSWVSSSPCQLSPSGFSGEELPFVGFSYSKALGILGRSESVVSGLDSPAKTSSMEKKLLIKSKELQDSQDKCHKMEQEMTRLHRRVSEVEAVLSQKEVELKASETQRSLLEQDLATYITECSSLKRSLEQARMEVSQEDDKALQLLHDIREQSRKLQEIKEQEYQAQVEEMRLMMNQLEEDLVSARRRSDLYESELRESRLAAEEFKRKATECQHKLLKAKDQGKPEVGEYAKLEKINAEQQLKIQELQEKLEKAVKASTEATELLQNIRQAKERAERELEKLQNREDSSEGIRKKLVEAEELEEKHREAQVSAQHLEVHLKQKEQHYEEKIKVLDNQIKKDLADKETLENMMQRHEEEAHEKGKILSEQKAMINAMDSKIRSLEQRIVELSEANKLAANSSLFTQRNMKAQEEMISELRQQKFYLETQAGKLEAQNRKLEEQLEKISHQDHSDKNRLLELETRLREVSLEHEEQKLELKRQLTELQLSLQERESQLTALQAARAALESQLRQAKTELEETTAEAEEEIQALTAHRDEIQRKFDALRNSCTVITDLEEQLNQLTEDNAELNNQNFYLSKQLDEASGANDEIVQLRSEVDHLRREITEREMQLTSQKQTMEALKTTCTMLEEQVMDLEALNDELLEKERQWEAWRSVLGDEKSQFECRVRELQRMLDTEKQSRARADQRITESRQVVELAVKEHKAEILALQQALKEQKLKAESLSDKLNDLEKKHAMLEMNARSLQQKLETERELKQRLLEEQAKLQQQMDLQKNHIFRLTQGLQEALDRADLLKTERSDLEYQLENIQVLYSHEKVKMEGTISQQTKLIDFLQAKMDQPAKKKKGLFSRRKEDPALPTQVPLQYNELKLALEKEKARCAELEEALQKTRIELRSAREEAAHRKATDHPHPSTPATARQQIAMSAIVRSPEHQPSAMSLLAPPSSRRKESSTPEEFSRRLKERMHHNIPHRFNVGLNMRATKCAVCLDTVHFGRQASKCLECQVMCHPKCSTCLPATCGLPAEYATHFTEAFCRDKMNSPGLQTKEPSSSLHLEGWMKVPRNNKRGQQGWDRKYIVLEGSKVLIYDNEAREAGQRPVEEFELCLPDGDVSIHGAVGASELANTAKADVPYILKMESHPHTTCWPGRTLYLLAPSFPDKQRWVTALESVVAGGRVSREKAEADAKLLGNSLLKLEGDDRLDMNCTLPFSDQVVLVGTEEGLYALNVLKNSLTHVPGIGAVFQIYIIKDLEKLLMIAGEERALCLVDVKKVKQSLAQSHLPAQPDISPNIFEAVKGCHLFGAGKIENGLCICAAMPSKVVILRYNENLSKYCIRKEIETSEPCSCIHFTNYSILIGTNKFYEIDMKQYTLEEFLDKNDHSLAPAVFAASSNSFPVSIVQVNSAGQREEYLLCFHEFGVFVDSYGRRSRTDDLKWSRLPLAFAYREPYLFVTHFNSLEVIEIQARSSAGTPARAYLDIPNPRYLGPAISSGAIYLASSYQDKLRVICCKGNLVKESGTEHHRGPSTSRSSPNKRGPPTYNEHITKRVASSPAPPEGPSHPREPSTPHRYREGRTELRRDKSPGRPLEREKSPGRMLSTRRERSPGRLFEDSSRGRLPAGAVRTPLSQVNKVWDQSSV

PIP5K1A (human) = PIP5K1A (human) (UniProt Q99755); details: compound 10.0 µM
Sequence of PIP5K1A (human) (Q99755 whole entry, looked up): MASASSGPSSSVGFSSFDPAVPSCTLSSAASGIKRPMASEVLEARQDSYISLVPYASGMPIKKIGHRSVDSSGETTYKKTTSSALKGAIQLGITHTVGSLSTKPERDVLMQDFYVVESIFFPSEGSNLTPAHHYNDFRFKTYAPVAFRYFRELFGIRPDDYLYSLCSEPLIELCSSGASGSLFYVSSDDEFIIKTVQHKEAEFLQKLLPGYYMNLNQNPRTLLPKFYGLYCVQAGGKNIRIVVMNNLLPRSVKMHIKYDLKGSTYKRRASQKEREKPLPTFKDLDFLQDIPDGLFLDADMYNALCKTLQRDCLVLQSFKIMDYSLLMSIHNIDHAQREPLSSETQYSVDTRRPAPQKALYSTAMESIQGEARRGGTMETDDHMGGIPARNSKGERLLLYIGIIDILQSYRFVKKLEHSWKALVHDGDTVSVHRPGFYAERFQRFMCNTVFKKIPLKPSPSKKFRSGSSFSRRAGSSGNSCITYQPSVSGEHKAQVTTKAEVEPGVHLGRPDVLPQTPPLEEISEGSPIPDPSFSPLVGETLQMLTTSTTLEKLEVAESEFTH

PLK1 (human) = PLK1 (human) (UniProt P53350); details: compound 10.0 µM
AURKC (human) = AURKC (human) (UniProt Q9UQB9); details: compound 10.0 µM
Sequence of AURKC (human) (Q9UQB9 whole entry, looked up): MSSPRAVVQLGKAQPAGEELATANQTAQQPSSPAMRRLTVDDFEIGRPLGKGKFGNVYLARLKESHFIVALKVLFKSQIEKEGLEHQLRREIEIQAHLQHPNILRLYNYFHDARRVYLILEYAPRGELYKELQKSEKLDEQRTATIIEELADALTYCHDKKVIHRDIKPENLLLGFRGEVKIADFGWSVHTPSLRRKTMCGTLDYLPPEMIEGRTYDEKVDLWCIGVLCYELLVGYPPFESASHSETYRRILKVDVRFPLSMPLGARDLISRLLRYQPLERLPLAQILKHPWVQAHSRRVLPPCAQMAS

MELK (human) = MELK (human) (UniProt Q14680); details: compound 10.0 µM
MYLK3 (human) = MYLK3 (human) (UniProt Q32MK0); details: compound 10.0 µM
AURKB (human) = AURKB (human) (UniProt Q96GD4); details: for kinase still bound, per cent of control: compound 10.0 µM
[2] = tested on: EGFR (human), P00533 [G719C; 746-750 del]; details: compound 10.0 µM
PHKG2 (human) = PHKG2 (human) (UniProt P15735); details: compound 10.0 µM
DDR2 (human) = DDR2 (human) (UniProt Q16832); details: compound 10.0 µM
CDK2 (human) = CDK2 (human) (UniProt P24941); details: compound 10.0 µM
CDK5 (human) = CDK5 (human) (UniProt Q00535); details: compound 10.0 µM
RIPK4 (human) = RIPK4 (human) (UniProt P57078); details: compound 10.0 µM
PRKAA1 (human) = PRKAA1 (human) (UniProt Q13131); details: compound 10.0 µM
MARK3 (human) = MARK3 (human) (UniProt P27448); details: compound 10.0 µM
PAK4 (human) = PAK4 (human) (UniProt O96013); details: compound 10.0 µM
CAMK1D (human) = CAMK1D (human) (UniProt Q8IU85); details: compound 10.0 µM

kinase still bound, per cent of control (PIM2 (human)) [%]	kinase still bound, per cent of control (MAP3K7 (human)) [%]	kinase still bound, per cent of control (PIM1 (human)) [%]	kinase still bound, per cent of control (CSNK2A2 (human)) [%]	kinase still bound, per cent of control (STK17B (human)) [%]	kinase still bound, per cent of control (DAPK1 (human)) [%]	kinase still bound, per cent of control (PIM3 (human)) [%]	kinase still bound, per cent of control [1] [%]	kinase still bound, per cent of control (CLK2 (human)) [%]	kinase still bound, per cent of control (SRPK3 (human)) [%]	kinase still bound, per cent of control (MAP2K3 (human)) [%]	kinase still bound, per cent of control (CIT (human)) [%]	kinase still bound, per cent of control (PIP5K1A (human)) [%]	kinase still bound, per cent of control (AURKC (human)) [%]	kinase still bound, per cent of control (MELK (human)) [%]	kinase still bound, per cent of control (MYLK3 (human)) [%]	kinase still bound, per cent of control (AURKB (human)) [%]	kinase still bound, per cent of control (PHKG2 (human)) [%]	kinase still bound, per cent of control (RIPK4 (human)) [%]	Structure (SMILES)	other results
3.4	18	9.5	3.4	31	6.4	6.1	25	5.2	14	10	23								CS(=O)(=O)Nc1ccc(-c2cc(/C=C3\SC(=N)NC3=O)c[nH]c2=O)cc1	kinase still bound, per cent of control (PKN2 (human)): 15%; kinase still bound, per cent of control (DMPK (human)): 6.4%; kinase still bound, per cent of control (PDGFRA (human)): 8%
1		4.8	9.6	1	2.2	5.4	0.6	0	13			17	30	30	2	8	11		Nc1cccc(-c2cc(/C=C3\SC(=O)NC3=O)c[nH]c2=O)c1	kinase still bound, per cent of control (PLK1 (human)): 1.8%; kinase still bound, per cent of control (DMPK (human)): 27%; kinase still bound, per cent of control [2]: 30%; kinase still bound, per cent of control (DDR2 (human)): 33%
1.4		3.8	15	2.9	8.3	4.7		2.8		3.2	33				16		15	4.2	N=C1NC(=O)/C(=C/c2ccc(-c3ccc(F)cc3O)o2)S1	kinase still bound, per cent of control (CDK2 (human)): 6.6%; kinase still bound, per cent of control (CDK5 (human)): 12%; kinase still bound, per cent of control (PRKAA1 (human)): 32%
0.3		8.1	11	0.4	15	5.4	33	15		20		30			21				N=C1NC(=O)/C(=C/c2ccc(-c3csc4ccccc34)o2)S1	kinase still bound, per cent of control (MARK3 (human)): 20%
4.3		2.8		24	4	2									2.6				CS(=O)(=O)Nc1ccc(-c2ncc(/C=C3\SC(=N)NC3=O)s2)cc1	kinase still bound, per cent of control (PDGFRA (human)): 26%
0.9		0.7	5.1	0.2	5.9	1.6	0.7	1.6	7.2		19	3.3	0.3	28	0.55	0.8	10	4.7	N=C1NC(=O)/C(=C/c2ccc(-c3cncc4ccccc34)o2)S1	kinase still bound, per cent of control (PKN2 (human)): 32%; Kd (AURKB (human)): 210 nM; kinase still bound, per cent of control (PAK4 (human)): 18%; kinase still bound, per cent of control (PDGFRA (human)): 26%; kinase still bound, per cent of control (CAMK1D (human)): 9%; kinase still bound, per cent of control (PRKAA1 (human)): 24%
	3.4	6.8		0.2	3.2	6.4		1	27		28	29	2.2	27	5.5	8.6		30	CN1C(=O)[C@H]2CCC[C@H]2N(C2CCCC2)c2nc(Nc3ccc(C(N)=O)cc3)ncc21	kinase still bound, per cent of control (PLK1 (human)): 0.65%; kinase still bound, per cent of control (PRKAA1 (human)): 31%
1.8		4	32	1.7	2.7	8	1.4	2.8	23			14		27					N=C1NC(=O)/C(=C/c2c[nH]c(=O)c(-c3ccc(N4CCNCC4)nc3)c2)S1	kinase still bound, per cent of control (DMPK (human)): 18%
0.55	28	2.7	5.6	0.25	9.6	2.7		3.1	14		28	17	5.2		8.7	27	8.1		O=C1NC(=S)S/C1=C\c1ccc(-c2cncc3ccccc23)o1	kinase still bound, per cent of control (CAMK1D (human)): 28%
1.4		1.4	17	2	7.6	2.1		0.9		3.4		11			29		16	5.2	N=C1NC(=O)/C(=C/c2ccc(-c3ccccc3O)o2)S1	kinase still bound, per cent of control (CDK2 (human)): 20%
1.7	14	13	6.2	5	3.7	16	16	9.5	14	29		29						8.4	CSC1=NC(=O)/C(=C/c2c[nH]c(=O)c(-c3ccc(NS(C)(=O)=O)cc3)c2)S1	kinase still bound, per cent of control (PLK1 (human)): 17%
